Data from US10266544B2, “Aryl substituted aminomethyl spectinomycin analogs as antibacterial agents” (ST. JUDE CHILDREN'S RESEARCH HOSPITAL, INC., priority 2013, dated 2019).
Values after ≈ are worked out from the molar mass of the structure shown. Counter-ions that a name gives are not always drawn. Like-named read-outs stand apart in the source and are kept apart here.

How the values were obtained:
Assay type in all cases: cell-based
[1] = tested on: acinetobacter baumannii (ATCC 19606); assay: MIC determination, microbroth dilution; conditions: ATCC19606
[2] = tested on: Pseudomonas aeruginosa (PA01); assay: MIC determination, microbroth dilution
[3] = tested on: E. coli K12 ΔtolC; assay: microbe, parasite or virus in culture; conditions: Escherichia coli, read-out: MIC E.c. Δtolc
[4] = tested on: Streptococcus pneumoniae (R6); assay: MIC determination, microbroth dilution; conditions: Streptococcus pneumoniae (R6); read-out: MIC S. pn.
[5] = tested on: Bacillus anthracis, Sterne 34F2; assay: microbe, parasite or virus in culture; conditions: STERNE34F2, read-out: MIC B.a.
[6] = tested on: Haemophilus influenza (ATCC 49247); assay: microbe, parasite or virus in culture; conditions: ATCC49247; Haemophilus influenza; 4 μg per disc; range of at least two experiments; read-out: Zone of inhibition H.i.
[7] = tested on: Enterococcus faecalis (ATCC 33186); assay: MIC determination, microbroth dilution; conditions: ATCC33186; Enterococcus faecalis (ATCC 33186); read-out: MIC E.f.
[8] = tested on: Neisseria gonorrhoeae (ATCC 49226); assay: Disc diffusion assay; conditions: ATCC49226, 4 μg per disc, read-out: Zone of inhibition N.g.
[9] = tested on: Staphylococcus aureus (ATCC 29213); assay: MIC determination, microbroth dilution; conditions: ATCC29213; Staphylococcus aureus (ATCC 29213); read-out: MIC S.a.
[10] = tested on: Legionella pneumophila (ATCC 33153); assay: microbe, parasite or virus in culture; conditions: ATCC33153, 72 h, read-out: Zone of inhibition L.p.
[11] = tested on: Neisseria meningitides (ATCC 13077); assay: Disc diffusion assay; conditions: ATCC13077, 4 μg per disc, read-out: Zone of inhibition N.m.
[12] = tested on: Klebsiella pneumoniae (ATCC 33495); assay: MIC determination, microbroth dilution; conditions: ATCC33495
[13] = tested on: Proteus mirabilis (ATCC 25933); assay: MIC determination, microbroth dilution; conditions: ATCC25933
[14] = tested on: MRSA, Staphylococcus aureus (NRS70); assay: MIC determination, microbroth dilution; conditions: Staphylococcus aureus (NRS70); read-out: MIC MRSA
[15] = tested on: M. tuberculosis clinical isolates; assay: microbe, parasite or virus in culture; conditions: Mycobacterium tuberculosis, H37RV, read-out: MIC H37Rv
[16] = tested on: Stenotrophomonas maltophilia (ATCC 13637); assay: MIC determination, microbroth dilution; conditions: ATCC13637; Stenotrophomonas maltophilia (ATCC 13637); read-out: MIC S.m.
[17] = tested on: Streptococcus pyogenes (ATCC 700294); assay: MIC determination, microbroth dilution; conditions: ATCC700294; Streptococcus pyogenes (ATCC 700294); read-out: MIC S. py.
[18] = tested on: Bacillus subtilis (ATCC 23857); assay: MIC determination, microbroth dilution; conditions: ATCC23857; Bacillus subtilis (ATCC 23857); read-out: MIC B.s.
[19] = tested on: Burkholderia cepacia (ATCC 25416); assay: MIC determination, microbroth dilution; conditions: Burkholderia cepacia
[20] = tested on: Escherichia coli (ATCC 700926); assay: MIC determination, microbroth dilution; conditions: ATCC700926; Escherichia coli (ATCC 700926); read-out: MIC E.c.
Method: MICs were determined using the microbroth dilution method according to Clinical Laboratory Standards Institute (CLSI; National, C. F. C. L. S., Methods for Dilution Antimicrobial Susceptibility Tests for Bacteria Grow aerobically-Seventh Edition: Approved Standard M7-A7, CLSI, Wayne, Pa., USA, 2008) and were read by visual inspection. Two fold serial dilutions of antibiotic in 100 μL of the appropriate broth media were first prepared in 96-well round bottom microtiter plates (Nalge Nunc International, Rochester, N.Y., USA). An equivalent volume (100 μL) of bacterial broth inocula containing approximately 10^5 bacterial cfu/mL was added to each well to give final concentrations of drug starting at 200 μg/mL and the plates were incubated aerobically at 37° C. M. tuberculosis microtiter plates were incubated for 7 days and all other strains were incubated overnight. After incubations, in all cases the MIC was recorded as the lowest concentration of drug that prevented bacterial growth.

[21] = tested on: Bacillus anthracis; assay: microbe, parasite or virus in culture; conditions: read-out: MIC B.a.
[22] = tested on: Proteus vulgaris (ATCC 33420); assay: MIC determination, microbroth dilution; conditions: ATCC33420
[23] = ATCC25416, read-out: MIC B.c., Burkholderia cepacia (ATCC 25416)

| SMILES | MIC [1] | MIC [2] | MIC [3] | MIC [4] | MIC [5] | zone of inhibition at 4 µg/disc [6] | zone of inhibition at 4 µg/disc [8] | MIC [9] | zone of inhibition at 4 µg/disc [10] | zone of inhibition at 4 µg/disc [11] | MIC [12] | MIC [13] | MIC [14] | MIC [15] | MIC [16] | MIC [17] | MIC [18] | MIC [19, 23] | MIC [20] | MIC [22] | other results |
| --- | --- | --- | --- | --- | --- | --- | --- | --- | --- | --- | --- | --- | --- | --- | --- | --- | --- | --- | --- | --- | --- |
| CN[C@@H]1[C@H](O)[C@H](NC)[C@H]2O[C@]3(O)[C@H](O[C@@H]2[C@H]1O)O[C@H](C)C[C@]3(O)CNCCc1ccccc1 [compound 27, 3′-(S)-3′-(phenethylaminomethyl)dihydrospectinomycin Trihydrochloride] | ≥ 200 µg/mL | > 200 µg/mL | 25 to 50 µg/mL | > 200 µg/mL | > 200 µg/mL | 0 mm | 7 mm | > 200 µg/mL | 0 mm | 0 mm | > 200 µg/mL | > 200 µg/mL | > 200 µg/mL | 200 µg/mL | ≥ 200 µg/mL | 50 to 100 µg/mL | > 200 µg/mL | 200 µg/mL | 50 to 100 µg/mL | > 200 µg/mL | MIC [7]: > 200 µg/mL; MIC ([19]; ATCC25416, read-out: MIC B.c., Burkholderia cepacia, Table 6): > 200 µg/mL; MIC [21]: > 200 µg/mL |
| CN[C@@H]1[C@H](O)[C@H](NC)[C@H]2O[C@]3(O)[C@H](O[C@@H]2[C@H]1O)O[C@H](C)C[C@@]3(O)CNc1ccc(OC)cc1 [compound 29, 3′-(R)-3′-[(4-methoxy)phenylaminomethyl)]dihydrospectinomycin Trihydrochloride] | ≥ 200 µg/mL | > 200 µg/mL | 50 µg/mL | > 200 µg/mL | 100 to 200 µg/mL | 7 mm | 12 mm | 200 µg/mL | 0 mm | 7 mm | > 200 µg/mL | > 200 µg/mL | > 200 µg/mL | > 200 µg/mL | 200 µg/mL | 25 µg/mL | 200 µg/mL | – | ≥ 200 µg/mL | > 200 µg/mL | – |
| CN[C@@H]1[C@H](O)[C@H](NC)[C@H]2O[C@]3(O)[C@H](O[C@@H]2[C@H]1O)O[C@H](C)C[C@@]3(O)CNc1ccccc1 [compound 30, 3′-(R)-3′-(phenylaminomethyl)dihydrospectinomycin Trihydrochloride] | > 200 µg/mL | > 200 µg/mL | 50 µg/mL | 12.5 to 25 µg/mL | 100 to 200 µg/mL | 6 mm | 7 mm | > 200 µg/mL | 0 mm | 6 mm | > 200 µg/mL | > 200 µg/mL | > 200 µg/mL | > 200 µg/mL | ≥ 200 µg/mL | 12.5 to 25 µg/mL | ≥ 200 µg/mL | > 200 µg/mL | 200 µg/mL | > 200 µg/mL | – |
| CN[C@@H]1[C@H](O)[C@H](NC)C2O[C@]3(O)C(OC2[C@H]1O)O[C@H](C)C[C@@]3(O)CNCc1cccc(O)c1 (some centres unmarked) [compound 35] | > 200 µg/mL | ≥ 200 µg/mL | 6.3 to 12.5 µg/mL (≈ 13.4 to 26.6 µM) | 0.8 to 1.6 µg/mL (≈ 1.7 to 3.41 µM) | 25 µg/mL (≈ 53.2 µM) | 15 to 16 mm | 16 mm | 25 to 50 µg/mL (≈ 53.2 to 106 µM) | 30 mm | 18 mm | > 200 µg/mL | > 200 µg/mL | 25 to 50 µg/mL (≈ 53.2 to 106 µM) | 50 µg/mL (≈ 106 µM) | 25 µg/mL (≈ 53.2 µM) | 0.4 to 0.8 µg/mL (≈ 0.852 to 1.7 µM) | 6.3 µg/mL (≈ 13.4 µM) | > 200 µg/mL | 200 µg/mL (≈ 426 µM) | ≥ 200 µg/mL | MIC [7]: 12.5 µg/mL (≈ 26.6 µM) |
